Measurements as given in patent publication US7388097B2, “Difluoromethyl thiazolyl carboxanilides” (Bayer CropScience AG, priority 2002, dated 2008).

Assays:
[1] = logP determination by HPLC on reverse-phase column (C 18), EEC Directive 79/831 Annex V.A8; type: physicochemical; conditions: reverse-phase C18 HPLC column; pH 2.3; HPLC reverse-phase C 18; 43° C.; 0.1% aqueous phosphoric acid/acetonitrile gradient
Method: The determination of the logP values given in the tables and Preparation Examples above is carried out in accordance with EEC Directive 79/831 Annex V.A8 by HPLC (High Performance Liquid Chromatography) on a reverse-phase column (C 18). Temperature: 43° C.
The determination is carried out in the acidic range at pH 2.3 using the mobile phases 0.1% aqueous phosphoric acid and acetonitrile; linear gradient from 10% acetonitrile to 90% acetonitrile.
Calibration is carried out using unbranched alkan-2-ones (of 3 to 16 carbon atoms) with known logP values (determination of the logP values by the retention times using linear interpolation between two successive alkanones).

Venturia inaequalis = assay: Venturia Test (Apple)/Protective; type: in vivo; conditions: 240 h, protective spray, application rate 10 g/ha, evaluation 10 days after inoculation, 100% = no infection, read-out: % efficacy
Method: Venturia Test (Apple)/Protective
(§1) To produce a suitable preparation of active compound, 1 part by weight of active compound is mixed with the stated amounts of solvents and emulsifier, and the concentrate is diluted with water to the desired concentration.
To test for protective activity, young plants are sprayed with the preparation of active compound at the stated application rate. After the spray coating has dried on, the plants are inoculated with an aqueous conidia suspension of the apple scab pathogen Venturia inaequalis and then remain in an incubation cabin at about 20° C. and 100% relative atmospheric humidity for 1 day.
The plants are then placed in a greenhouse at about 21° C. and a relative atmospheric humidity of about 90%.
Evaluation is carried out 10 days after the inoculation. 0% means an efficacy which corresponds to that of the control, whereas an efficacy of 100% means that no infection is observed.

Botrytis cinerea = assay: Botrytis Test (Bean)/Protective; type: in vivo; conditions: 48 h, protective spray, application rate 100 g/ha, evaluation 2 days after inoculation, 100% = no infection, read-out: % efficacy
Method: Botrytis Test (Bean)/Protective
as §1
To test for protective activity, young plants are sprayed with the preparation of active compound at the stated application rate. After the spray coating has dried on, 2 small pieces of agar colonized by Botrytis cinerea are placed onto each leaf. The inoculated plants are placed in a dark chamber at about 20° C. and 100% relative atmospheric humidity.
2 days after the inoculation, the size of the infected areas on the leaves is evaluated. 0% means an efficacy which corresponds to that of the control, whereas an efficacy of 100% means that no infection is observed.

Rhizoctonia solani = assay: In vitro test for the ED50 determination of microorganisms; type: cell-based; conditions: 50% inhibition of fungal growth, tested at 0.1, 1, 10 and 100 ppm, 22° C., 3-5 days, photometric 620 nm
Method: (§2) In Vitro Test for the ED50 Determination of Microorganisms
(§3) A methanolic solution of the active compound to be tested, mixed with the emulsifier PS16, is pipetted into the wells of microtiter plates. After the solvent has evaporated, 200 μl of potato/dextrose medium are added to each well.
(§4) Beforehand, a suitable concentration of spores or mycelium of the fungus to be tested was added to the medium.
(§5) The resulting concentrations of active compound are 0.1, 1, 10 and 100 ppm. The resulting concentration of the emulsifier is 300 ppm.
(§6) The plates are then incubated on a shaker at a temperature of 22° C. for 3-5 days, until sufficient growth can be observed in the untreated control.
(§7) Evaluation is carried out photometrically at a wavelength of 620 nm. The dose of active compound which causes a 50% inhibition of fungal growth compared to the untreated control (ED50) is calculated from the data measured at different concentrations.

Septoria tritici = assay: as above; type: cell-based; conditions: 50% inhibition of fungal growth, tested at 0.1, 1, 10 and 100 ppm, 22° C., 3-5 days, photometric 620 nm
Method: as §2, §3, §4, §5, §6, §7

SMILES	chromatographic logP [1]	pest or weed control at 10 g/ha (Venturia inaequalis) [%]	pest or weed control at 100 g/ha (Botrytis cinerea) [%]	ED50 (Rhizoctonia solani) [ppm]	ED50 (Septoria tritici) [ppm]
Cc1nc(C(F)F)c(C(=O)Nc2ccccc2-c2ccc(C)c(Cl)c2)s1 [Example 12]	3.62	100	100	–	–
Cc1nc(C(F)F)c(C(=O)Nc2ccccc2-c2ccc(OC(F)(F)F)cc2)s1 [Example 5]	3.72	87	79	< 0.1	0.25
Cc1nc(C(F)F)c(C(=O)Nc2ccccc2-c2ccc(C(F)(F)F)cc2)s1 [Example 3]	3.52	100	100	< 0.1	0.36
Cc1nc(C(F)F)c(C(=O)Nc2ccccc2-c2ccc(Cl)c(F)c2)s1 [Example 11]	3.29	100	100	–	–
Cc1nc(C(F)F)c(C(=O)Nc2ccccc2-c2ccc(Cl)cc2Cl)s1 [Example 9]	3.58	98	95	–	–
Cc1nc(C(F)F)c(C(=O)Nc2ccccc2-c2ccc(Br)cc2)s1 [Example 2]	3.47	100	100	–	–
Cc1nc(C(F)F)c(C(=O)Nc2ccccc2-c2ccc(F)cc2)s1 [Example 7]	3.09	100	94	0.48	0.68
Cc1nc(C(F)F)c(C(=O)Nc2ccccc2-c2cccc(Cl)c2)s1 [Example 4]	3.37	100	100	< 0.1	0.45
CSc1ccc(-c2ccccc2NC(=O)c2sc(C)nc2C(F)F)cc1 [Example 6]	3.39	99	94	3.25	3.51
Cc1nc(C(F)F)c(C(=O)Nc2ccccc2-c2ccc(F)c(Cl)c2)s1 [Example 1, N-(3′-chloro-4′-fluoro-1,1′-biphenyl-2-yl)-2-methyl-4-(difluoromethyl)-1,3-thiazole-5-carboxamide]	3.28	–	–	–	–
Cc1nc(C(F)F)c(C(=O)Nc2ccccc2-c2ccc(Cl)cc2C)s1 [Example 10]	3.77	100	100	–	–
